The test deals with hENPP2 (Homo sapiens, UniProt Q13822). Kind of test: Human ENPP2 (hENPP2) biochemical assay using LPC as substrate. The conditions noted are these: 150 µM LPC (palmitoyl 16:0), 37°C for 30 min. Summed up:
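IC50 came from compound series (top 50 µM, 1/3 steps) incubated 30 min at 37°C with 1 or 3 µg/mL final enzyme and palmitoyl LPC added at 150 µM, pH 8.5 Tris buffer with Ca2+. Choline output measured as quinoneimine dye at 555 nm via coupled oxidase/HRP/TOOS detection.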
In the case of `Cc1cc(C)cc(Nc2ncc3c(n2)CCN(C2CCN(C(=O)c4c[nH]nn4)CC2)C3)c1` [compound 162, [4-[2-(3,5-dimethylanilino)-7,8-dihydro-5H-pyrido[4,3-d]pyrimidin-6-yl]-1-piperidyl]-(1H-triazol-4-yl)methanone], the IC50 (commonly the midpoint of a concentration-inhibition curve) is greater than 1000 nM.

Turning to `Cc1cc(C)cc(Nc2ncc3c(n2)CN([C@@H]2CCN(C(=O)c4cc5nn[nH]c5cc4C)[C@H](C)C2)C3)c1` [compound 163, [(2R,4R)-4-[2-(3,5-dimethylanilino)-5,7-dihydropyrrolo[3,4-d]pyrimidin-6-yl]-2-methyl-1-piperidyl]-(6-methyl-1H-benzotriazol-5-yl)methanone], the concentration for half-maximal inhibition (IC50) fell in the range of 0.01 to 100 nM.

The compound `C[C@@H]1C[C@@H](N2Cc3cnc(Nc4ccccc4)nc3C2)CCN1C(=O)c1ccc2[nH]nnc2c1` [compound 165, [(2R,4S)-4-(2-anilino-5,7-dihydropyrrolo[3,4-d]pyrimidin-6-yl)-2-methyl-1-piperidyl]-(1H-benzotriazol-5-yl)methanone] showed an IC50 greater than 1000 nM.

The compound `C[C@@H]1C[C@H](N2Cc3cnc(Nc4ccccc4)nc3C2)CCN1C(=O)c1ccc2[nH]nnc2c1` [compound 166, [(2R,4R)-4-(2-anilino-5,7-dihydropyrrolo[3,4-d]pyrimidin-6-yl)-2-methyl-1-piperidyl]-(1H-benzotriazol-5-yl)methanone] yielded a concentration for half-maximal inhibition (IC50) of 100 to 500 nM.

For the compound `Cc1cc(C)cc(Nc2ncc3c(n2)CN([C@@H]2CCN(C(=O)c4ccc5[nH]nnc5c4C)[C@H](C)C2)C3)c1` [compound 168, [(2R,4R)-4-[2-(3,5-dimethylanilino)-5,7-dihydropyrrolo[3,4-d]pyrimidin-6-yl]-2-methyl-1-piperidyl]-(4-methyl-1H-benzotriazol-5-yl)methanone], the IC50 lay in the range of 0.01 to 100 nM.

As to `COc1cccc(Nc2ncc3c(n2)CN([C@H]2CCN(C(=O)c4ccc5[nH]nnc5c4)[C@H](C)C2)C3)c1` [compound 170, 1H-benzotriazol-5-yl-[(2R,4S)-4-[2-(3-methoxyanilino)-5,7-dihydropyrrolo[3,4-d]pyrimidin-6-yl]-2-methyl-1-piperidyl]methanone], the IC50 is 100 to 500 nM.

In turn, `COc1cccc(Nc2ncc3c(n2)CN([C@@H]2CCN(C(=O)c4ccc5[nH]nnc5c4)[C@H](C)C2)C3)c1` [compound 171, 1H-benzotriazol-5-yl-[(2R,4R)-4-[2-(3-methoxyanilino)-5,7-dihydropyrrolo[3,4-d]pyrimidin-6-yl]-2-methyl-1-piperidyl]methanone] returned an IC50 of 0.01 to 100 nM.

The compound `C[C@@H]1C[C@H](N2Cc3cnc(Nc4ccc(F)cc4)nc3C2)CCN1C(=O)c1c[nH]nn1` [compound 173, [(2R,4R)-4-[2-(4-fluoroanilino)-5,7-dihydropyrrolo[3,4-d]pyrimidin-6-yl]-2-methyl-1-piperidyl]-(1H-triazol-4-yl)methanone] showed an IC50 greater than 1000 nM.

In the case of `Cc1cc(C)cc(Nc2ncc3c(n2)CCN(C2CCN(C(=O)c4ccnc(NS(C)(=O)=O)c4)CC2)C3)c1` [compound 174, N-[4-[4-[2-(3,5-dimethylanilino)-7,8-dihydro-5H-pyrido[4,3-d]pyrimidin-6-yl]piperidine-1-carbonyl]-2-pyridyl]methanesulfonamide], the IC50 was greater than 1000 nM.

Compound `C[C@@H]1C[C@H](N2Cc3cnc(Nc4ccc(C(F)(F)F)cc4)nc3C2)CCN1C(=O)c1c[nH]nn1` [compound 175, [(2R,4R)-2-methyl-4-[2-[4-(trifluoromethyl)anilino]-5,7-dihydropyrrolo[3,4-d]pyrimidin-6-yl]-1-piperidyl]-(1H-triazol-4-yl)methanone] gave an IC50 of 0.01 to 100 nM.

`Cc1cc(C)cc(Nc2ncc3c(n2)CN([C@@H]2CCN(C(=O)c4nn[nH]c4C)[C@H](C)C2)C3)c1` [compound 176, [(2R,4R)-4-[2-(3,5-dimethylanilino)-5,7-dihydropyrrolo[3,4-d]pyrimidin-6-yl]-2-methyl-1-piperidyl]-(5-methyl-1H-triazol-4-yl)methanone] showed an IC50 of 0.01 to 100 nM.

The compound `C[C@@H]1C[C@H](N2Cc3cnc(Nc4ccc(S(F)(F)(F)(F)F)cc4)nc3C2)CCN1C(=O)c1ccnc(NS(C)(=O)=O)c1` [compound 177, N-[4-[(2R,4R)-2-methyl-4-[2-[4-(pentafluoro-λ^6-sulfanyl)anilino]-5,7-dihydropyrrolo[3,4-d]pyrimidin-6-yl]piperidine-1-carbonyl]-2-pyridyl]methanesulfonamide] returned a half-maximal inhibitory concentration (IC50) of 0.01 to 100 nM.

For `C[C@@H]1C[C@@H](N2Cc3cnc(Nc4ccc(S(F)(F)(F)(F)F)cc4)nc3C2)CCN1C(=O)c1ccnc(NS(C)(=O)=O)c1` [compound 178, N-[4-[(2R,4S)-2-methyl-4-[2-[4-(pentafluoro-λ^6-sulfanyl)anilino]-5,7-dihydropyrrolo[3,4-d]pyrimidin-6-yl]piperidine-1-carbonyl]-2-pyridyl]methanesulfonamide], the IC50 was 0.01 to 100 nM.

The compound `C[C@@H]1C[C@H](N2Cc3cnc(Nc4ccc(Cl)cc4)nc3C2)CCN1C(=O)c1ccnc(NS(C)(=O)=O)c1` [compound 179, N-[4-[(2R,4R)-4-[2-(4-chloroanilino)-5,7-dihydropyrrolo[3,4-d]pyrimidin-6-yl]-2-methyl-piperidine-1-carbonyl]-2-pyridyl]methanesulfonamide] came in with an IC50 of 0.01 to 100 nM.

With `C[C@@H]1C[C@@H](N2Cc3cnc(Nc4ccc(Cl)cc4)nc3C2)CCN1C(=O)c1ccnc(NS(C)(=O)=O)c1` [compound 180, N-[4-[(2R,4S)-4-[2-(4-chloroanilino)-5,7-dihydropyrrolo[3,4-d]pyrimidin-6-yl]-2-methyl-piperidine-1-carbonyl]-2-pyridyl]methanesulfonamide], the IC50 was 100 to 500 nM.

`Cc1ccc(Nc2ncc3c(n2)CN([C@@H]2CCN(C(=O)c4ccnc(NS(C)(=O)=O)c4)[C@H](C)C2)C3)cc1` [compound 181, N-[4-[(2R,4R)-2-methyl-4-[2-(4-methylanilino)-5,7-dihydropyrrolo[3,4-d]pyrimidin-6-yl]piperidine-1-carbonyl]-2-pyridyl]methanesulfonamide] displayed an IC50 of 0.01 to 100 nM.

`Cc1ccc(Nc2ncc3c(n2)CN([C@H]2CCN(C(=O)c4ccnc(NS(C)(=O)=O)c4)[C@H](C)C2)C3)cc1` [compound 182, N-[4-[(2R,4S)-2-methyl-4-[2-(4-methylanilino)-5,7-dihydropyrrolo[3,4-d]pyrimidin-6-yl]piperidine-1-carbonyl]-2-pyridyl]methanesulfonamide] gave an IC50 of 500 to 1000 nM.

Take `Cc1cc2[nH]nnc2cc1C(=O)N1CC[C@@H](N2Cc3cnc(Nc4ccc(C(F)(F)F)cc4)nc3C2)C[C@H]1C` [compound 183, (6-methyl-1H-benzotriazol-5-yl)-[(2R,4R)-2-methyl-4-[2-[4-(trifluoromethyl)anilino]-5,7-dihydropyrrolo[3,4-d]pyrimidin-6-yl]-1-piperidyl]methanone]: the IC50 was in the range of 0.01 to 100 nM.

With `COc1cc(C)cc(Nc2ncc3c(n2)CN([C@@H]2CCN(C(=O)c4cc5nn[nH]c5cc4C)[C@H](C)C2)C3)c1` [compound 184, [(2R,4R)-4-[2-(3-methoxy-5-methyl-anilino)-5,7-dihydropyrrolo[3,4-d]pyrimidin-6-yl]-2-methyl-1-piperidyl]-(6-methyl-1H-benzotriazol-5-yl)methanone], the IC50 was in the range of 0.01 to 100 nM.

For the origin of these results see EP3782997A1, “FUSED PYRIMIDINE COMPOUNDS AND PHARMACEUTICAL COMPOSITIONS THEREOF FOR THE TREATMENT OF FIBROTIC DISEASES” (Galapagos N.V., priority 2019, dated 2021).
